What was measured:
Assay in all cases: relative viability (nuclei count vs DMSO), 5 days (fraction); higher = more cells survive
Vemurafenib + Vorinostat = compound: CCCS(=O)(=O)Nc1ccc(F)c(C(=O)c2c[nH]c3ncc(-c4ccc(Cl)cc4)cc23)c1F [Vemurafenib] + O=C(CCCCCCC(=O)Nc1ccccc1)NO [Vorinostat] (partner 1 µM)
In short: (§1)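 Cells from lung cancer lines were seeded into 1536-well plates and, one day later, dosed by pin tool. Treatments were either a single drug or a fixed dose of an anchor drug with five library-drug doses (not always all listed) in √10 steps. After 5 days, nuclei were stained in a one-step fixation (final 0.05% Triton X-100, 1% formaldehyde, 1 ug/ml Hoechst) and counted on 4× images, and relative viability is the treated-to-vehicle nuclei ratio, as the median of duplicate plates.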

OSI-027 + Palbociclib = compound: COc1cccc2cc(-c3nc([C@H]4CC[C@H](C(=O)O)CC4)n4ncnc(N)c34)[nH]c12 [OSI-027] + CC(=O)c1c(C)c2cnc(Nc3ccc(N4CCNCC4)cn3)nc2n(C2CCCC2)c1=O [Palbociclib] (partner 0.5 µM)
In short: as §1

OSI-027 + AZD7762 = compound: COc1cccc2cc(-c3nc([C@H]4CC[C@H](C(=O)O)CC4)n4ncnc(N)c34)[nH]c12 [OSI-027] + NC(=O)Nc1cc(-c2cccc(F)c2)sc1C(=O)N[C@H]1CCCNC1 [AZD7762] (partner 0.2 µM)
In short: as §1

Alpelisib + Crizotinib = compound: Cc1nc(NC(=O)N2CCC[C@H]2C(N)=O)sc1-c1ccnc(C(C)(C)C(F)(F)F)c1 [Alpelisib] + C[C@@H](Oc1cc(-c2cnn(C3CCNCC3)c2)cnc1N)c1c(Cl)ccc(F)c1Cl [Crizotinib] (partner 1 µM)
In short: as §1

| Cell Line | relative viability (Vemurafenib + Vorinostat; first compound 0.03162 µM) | relative viability (Vemurafenib + Vorinostat; first compound 0.3162 µM) | relative viability (Vemurafenib + Vorinostat; first compound 1 µM) | relative viability (OSI-027 + Palbociclib; first compound 0.01 µM) | relative viability (OSI-027 + Palbociclib; first compound 0.03162 µM) | relative viability (OSI-027 + Palbociclib; first compound 0.1 µM) | relative viability (OSI-027 + Palbociclib; first compound 0.3162 µM) | relative viability (OSI-027 + Palbociclib; first compound 1 µM) | relative viability (OSI-027 + AZD7762; first compound 0.01 µM) | relative viability (OSI-027 + AZD7762; first compound 0.03162 µM) | relative viability (OSI-027 + AZD7762; first compound 0.1 µM) | relative viability (OSI-027 + AZD7762; first compound 0.3162 µM) | relative viability (OSI-027 + AZD7762; first compound 1 µM) | relative viability (Alpelisib + Crizotinib; first compound 0.04 µM) | relative viability (Alpelisib + Crizotinib; first compound 0.1265 µM) | relative viability (Alpelisib + Crizotinib; first compound 0.4 µM) | relative viability (Alpelisib + Crizotinib; first compound 1.265 µM) | relative viability (Alpelisib + Crizotinib; first compound 4 µM) | relative viability (Vemurafenib + Vorinostat; first compound 0.1 µM) |
| --- | --- | --- | --- | --- | --- | --- | --- | --- | --- | --- | --- | --- | --- | --- | --- | --- | --- | --- | --- |
| PC-14 | 0.72 | 0.643 | 0.655 | 0.512 | 0.509 | 0.545 | 0.576 | 0.408 | 0.369 | 0.314 | 0.302 | 0.35 | 0.22 | 0.817 | 0.893 | 1.04 | 0.842 | 0.766 | – |
| RERF-LC-KJ | 0.616 | 0.625 | 0.709 | 1.07 | 0.957 | 0.99 | 0.817 | 0.457 | 1.05 | 0.742 | 0.871 | 0.748 | 0.452 | 0.76 | 0.77 | 0.83 | 0.787 | 0.741 | 0.659 |
